This is an account of results in patent US7351531B2, “Molecules capable of binding to telomere and the like and method with the use of the same” (Japan Science and Technology Corporation, priority 2001, dated 2008).

The subject of assay [1] is single-stranded human telomere sequence DNA (22-mer 5'-AGGGTTAGGGTTAGGGTTAGGG3'). Briefly: Binding titration with single-stranded human telomere sequence DNA (22-mer, FIG. 4). As for the experimental part:
Samples of single-stranded human telomere sequence DNA were tested for the inhibition of DNA cleavage by DNase I (DNA hydrolase) through footprinting titration in the presence of a varying concentration of the compound of formula (III) (this is hereinafter referred to as naphthyridine dimer or simply as ND).
The test result in FIG. 4 is similar to that in FIG. 2. The vertical axis of FIG. 4 indicates the cleavage inhibition ratio derived from the cleavage band intensity. […] The horizontal axis of FIG. 4 indicates the ratio of the G-G mismatch concentration to the concentration (M) of the compound of formula (III) added to the test system, [GG]/[ND] in which ND means the compound of formula (III).
A solution of a 22-mer oligonucleotide having the following base sequence: • 5′-[…]3′ (SEQ ID NO: 9) in a sodium cacodylate buffer (10 mM, pH 7.0, NaCl 100mM) was heated at 70° C. for 5 minutes, and then gradually cooled so that the oligomer could form a quadraplex structure (see Structure, 263, 1 (1993)). A varying concentration of a naphthyridine dimer was dropwise added to the resulting solution, and the naphthyridine dimer-binding amount was obtained through 360 nm absorptiometry.

Assay [2] deals with G-A mismatch base pair in 52-mer duplex DNA. Briefly: DNase I footprinting titration of 52-mer duplex DNA, G-A mismatch site. Format: binding. The arrangement: effect of inhibiting G-A mismatch site cleavage: dose or concentration left out as unconfirmed. On the procedure: (§1) A 5′-^32P-labeled 52-mer duplex DNA having a GC base pair, GA mismatch base pair and a GG mismatch base pair in the duplex DNA was prepared. The partial listing of the corresponding moieties is shown below.
(§2) The inventors have analyzed the duplex DNA through DNase I (DNA hydrolase) footprinting titration for the sites where the DNA cleavage by DNase I was inhibited in the presence of a varying concentration of the compound of formula (III).
(§3) The relationship between the cleavage band intensity and the naphthyridine concentration in FIG. 1 is plotted to give a graph as in FIG. 2. The vertical axis of FIG. 2 indicates the cleavage inhibition ratio derived from the cleavage band intensity. […] The horizontal axis of FIG. 2 indicates the concentration (M) of the compound of formula (III) added to the test system. In FIG. 2, the closed circles (●) indicate the G-G mismatch site, and the closed triangles (▴) indicate the G-A mismatch site.
(§4) ^32P-5′-end-labeled 52-mer DNA was hybridized into a duplex DNA with G-G and G-A mismatches (see the right side of FIG. 1).
(§5) A varying concentration of the compound obtained in Example 1 was added to the duplex DNA, and the DNA was analyzed through DNase I footprinting titration.
(§6) Concretely, the duplex DNA (<4 nM strand concentration) was incubated at 4° C. for 12 hours along with a varying concentration of the compound obtained in Example 1, in a tris-HCl buffer (10 mM, pH 7.6) that contains NaCl (100 mM) and MgCl2(5 mM). To this was added 0.2 U DNaseI (DNA hydrolase), and this was further incubated at 25° C. for 8 minutes. Next, this was precipitated in ethanol to recover the DNA, which was then subjected to electrophoresis with a gel that contains 12% polyacrylamide and 7 M urea.

For assay [3], the system named is G-G mismatch base pair in 52-mer duplex DNA. Nature of the assay: DNase I footprinting titration of 52-mer duplex DNA, G-G mismatch site. Format: binding. On the procedure: as §1, §2, §3, §4, §5, §6
The subject of assay [4] is normal G-C base pair in 52-mer duplex DNA. Nature of the assay: DNase I footprinting titration of 52-mer duplex DNA, normal G-C site. Format: binding. The conditions noted are these: concentration 0 to 500 μM, FIG. 1. On the procedure: as §1, §2
In FIG. 1, the concentration of the compound of formula (III) varies from 0 to 500 μM from the left to the right. The sites cleaved with the DNase I (DNA hydrolase) are seen black, while those protected from cleavage with the DNase I are seen white.
as §4, §5
Concretely, the duplex DNA (<4 nM strand concentration) was incubated at 4° C. for 12 hours along with a varying concentration of the compound obtained in Example 1, in a tris-HCl buffer (10 mM, pH 7.6) that contains NaCl (100 mM) and MgCl2(5 mM). To this was added 0.2 U DNaseI (DNA hydrolase), and this was further incubated at 25° C. for 8 minutes. […]

[5] abbreviates: 52-mer duplex DNA, DNase I footprinting titration.

Each structure is given as a SMILES string.

For the compound `Cc1ccc2ccc(NC(=O)CCNCCC(=O)Nc3ccc4ccc(C)nc4n3)nc2n1` [compound of formula (III), dinaphthyridinamide], in assay [1] (22-mer, sodium cacodylate buffer pH 7.0, NaCl 100 mM, Scatchard plot), the “association constant to the G-G mismatch (Ka(GGmis)) in human telomere sequence” value was determined as 420000 M⁻¹. Also, in assay [1] (FIG. 4), the “concentration ratio [GG]/[ND] at which G-G mismatch site cleavage is almost completely inhibited” value is recorded as “about 3”. Moreover, the “concentration ratio [GG]/[ND] at which compound is already effective for inhibiting cleavage of the G-G mismatch site” value in assay [1] (FIG. 4, relatively low concentration) is 0.5. The “effect of inhibiting G-A mismatch site cleavage” value in assay [2] is “about 90%”. Besides, the “association constant to the G-A mismatch (Ka(GAmis))” value in assay [2] (setting [5]) turned out to be 16300 M⁻¹. In addition, the “concentration at which compound becomes effective for inhibiting cleavage of the G-A mismatch site” value in assay [2] (FIG. 2) was “about 10^−6 M”. In addition, the “association constant to the G-G mismatch (Ka(GGmis))” value in assay [3] (setting [5]) came out at 1.13e+07 M⁻¹. The “concentration at which G-G mismatch site cleavage by DNase I is almost completely inhibited” value in assay [3] (FIG. 2) is “about 10^−5 M”. Further, the “ratio of the association constants (Ka(GGmis))/(Ka(GAmis))” value in assay [3] (G-G versus G-A mismatch, 52-mer duplex DNA) was 696. The “protection of normal G-C base pair from DNase I cleavage” value in assay [4] is reported as “cleaved by DNase I”.
